Reference: patent US10512665B2, “Methods and compositions related to inhibition of viral entry” (University of Utah Research Foundation, priority 2007, dated 2019)
pIC50: −log10 of the molar value. Where two headings read alike, the source gives them in different places.

How the values were obtained:
JRFL = experiment: Viral infectivity (pseudovirion entry) assay, primary strain JRFL; type: cell-based, HIV-1; conditions: for IC50: JRFL pseudovirion entry, Table 4, read-out: IC50 (nM) (JRFL); for pIC50: read-out: IC50 against primary isolate JRFL
Procedure: While HXB2 is a commonly used lab-adapted HIV-1 isolate, it is often more vulnerable to inhibition than primary clinical HIV-1 isolates. […] Bianchi 2005).
All studies were done using the HXB2 strain unless otherwise specified. Viral infectivity was measured essentially as previously described (Hamburger 2005) with several modifications. 8 μg/mL DEAE-Dextran was used as a fusion enhancer in all assays. Media was changed 22-26 h following infection. […] Fits were weighted by the absolute s.e.m. from quadruplicate points with the minimum allowable error set to 1%.

HXB2 strain = experiment: Single-cycle viral infectivity (viral entry) assay, HXB2 strain
Procedure: All studies were done using the HXB2 strain unless otherwise specified. […] 8 μg/mL DEAE-Dextran was used as a fusion enhancer in all assays. Media was changed 22-26 h following infection. […] Fits were weighted by the absolute s.e.m. from quadruplicate points with the minimum allowable error set to 1%.

[1] = read-out: IC50 (nM) (HXB2), HXB2 pseudovirion entry, Table 4
[2] = read-out: IC50, inhibition of viral entry, HXB2
[3] = read-out: IC50 (μM) (HXB2), HXB2 viral entry, Table 3

Compound | IC50 (HXB2 strain; [1]) [nM] | IC50 (JRFL) [nM] | IC50 (HXB2 strain; [3]) [nM] | other results
Cc1ccc(-c2ccc3c(c2)C=C(C(=O)Nc2ccc(C[N+](C)(C)C4CCOCC4)cc2)CCC3)cc1 [TAK779, reference compound] |  |  |  | IC90 (JRFL; CCR5 co-receptor inhibitor, JRFL entry assay): 100 nM
GACDYPEWQWLCAAGK [PIE7-GK] | 389 | 15800 |  | inhibitory potency compared in words (HXB2 strain): slightly enhanced potency
GACDYPEWQWLCAAGKK [PIE7-GKK] | 382 | 19100 |  | 
HACDYPEWQWLCELGK [PIE15] | 66.7 | 1450 |  | 
HPCDYPEWQWLCELGK [PIE12] |  | 578 |  | 
HPCDYPEWQWLCKLGK [PIE13] | 41.3 | 1470 |  | 
HPCDYPEWQWLCRLGK [PIE14] | 33.1 | 1050 |  | 
KGACDYKEWQWLCAA [PIE8] |  |  |  | pIC50 (HXB2 strain; [2]): 5.77
KGACDYPEWQWLCAA [PIE7] | 620 | 24000 | 620 | more potent than D10-p5 (HXB2 strain; HXB2, compared with D10-p5): ~15 fold; inhibitory activity in combination with Fuzeon (HXB2 strain; against viral entry, with Fuzeon): at least additive; pIC50 (HXB2 strain; [2]): 6.21; reduction in potency against JRFL (JRFL; JRFL compared with HXB2): ~40 fold; improvement of potency on addition of TAK779 (JRFL; JRFL, addition of 100 nM TAK779): more than 3 fold; pIC50 (JRFL; JRFL): 4.61
KGACDYPEWQWLCAAGK [K-PIE7-GK] |  | 14800 |  | 
KGACDYPEWRWLCAA [PIE2] |  |  |  | pIC50 (HXB2 strain; [2]): 5.88
KGACDYPEWRWLCAAA [PIE2-AAA] |  |  | 1440 | inhibitory potency compared in words (HXB2 strain): nearly indistinguishable from the potency of PIE2
KKGACDYPEWRWLCAA [2K-PIE2] |  |  | 2570 | less potent than PIE2 (HXB2 strain; HXB2, compared with PIE2): ~2 fold
KKGACELLGWEWAWLCAA [D10-p5, reference compound] |  |  | 9510 | inhibition of infection of cells (HXB2 strain; infectivity assay): inhibit infection of cells
KKGACESPEWRWLCAA [2K-PIE1] |  |  | 2220 | 
PEG-(KGACDYPEWQWLCAA)2 [PEG-(PIE7)2] | 1.9 |  | 1.9 | inhibitory potency compared in words (HXB2 strain): comparable to Fuzeon; improvement in IC50 over the corresponding monomer (HXB2 strain; HXB2, dimer vs monomer): ~325 fold; pIC50 (HXB2 strain; read-out: IC50 of dimeric inhibitors, HXB2): 8.72; pIC50 (JRFL; JRFL): 5.64
enfuvirtide [Fuzeon, reference compound] | 3.7 | 5 | 3.7 | 
